Data reported in PMC6414696 (mBio, 2019).
≈ marks a conversion by molar mass, not a printed value. Where two headings read alike, the source gives them in different places. Blank lines part the entries; values can stand above or below the molecule they belong to.

How the values were obtained:
OXA-10 = settings: cited from earlier work
OXA 24/40 = settings: cited from earlier work
OXA-48 = settings: cited from earlier work
OXA-58 β-lactamase [1] = biological target: T1, OXA-58 β-lactamase (Acinetobacter baumannii, UniProt Q2TR58); assay: OXA-58 acyl-transfer experiment (mass spectrometry), KPC-2 as recipient; format: biochemical; settings: 10 µM each, 15 s to 24 h
T1 sequence (Q2TR58 22-280): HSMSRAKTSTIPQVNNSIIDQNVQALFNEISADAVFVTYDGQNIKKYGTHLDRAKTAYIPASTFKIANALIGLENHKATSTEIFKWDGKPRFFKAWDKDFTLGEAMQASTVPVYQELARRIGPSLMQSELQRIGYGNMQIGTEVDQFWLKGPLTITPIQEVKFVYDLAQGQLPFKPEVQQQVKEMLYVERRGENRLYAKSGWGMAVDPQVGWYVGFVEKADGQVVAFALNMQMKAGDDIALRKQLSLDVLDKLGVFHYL

OXA-23 = settings: range given jointly for several OXA enzymes; cited from earlier work
ADC-7 β-lactamase = ADC-7 β-lactamase (Acinetobacter baumannii, UniProt Q6DRA1); assay: β-Lactamase steady-state kinetic analysis, ADC-7; format: biochemical, A. baumannii
A. baumannii ARC5955 = assay: Neutropenic murine thigh infection model; format: in vivo; settings: thigh tissue, CD-1 mice, 24 h after initiation of therapy, 50 mg/kg SC/q3h
OXA-58 β-lactamase [2] = biological target: T1, OXA-58 β-lactamase; assay: β-Lactamase steady-state kinetic analysis, OXA-58; format: biochemical, Acinetobacter spp.
OXA-66 β-lactamase = OXA-66 β-lactamase (Acinetobacter baumannii, UniProt Q58XD2); assay: β-Lactamase steady-state kinetic analysis, OXA-66; format: biochemical, A. baumannii
Chain of OXA-66 β-lactamase (Q58XD2 entry or part of it): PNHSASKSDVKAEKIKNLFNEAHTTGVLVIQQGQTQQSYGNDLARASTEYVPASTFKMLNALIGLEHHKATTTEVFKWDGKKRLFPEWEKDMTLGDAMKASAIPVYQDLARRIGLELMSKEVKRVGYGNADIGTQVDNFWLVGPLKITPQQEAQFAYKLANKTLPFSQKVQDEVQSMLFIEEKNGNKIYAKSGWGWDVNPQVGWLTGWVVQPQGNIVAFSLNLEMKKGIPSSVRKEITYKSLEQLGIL

KPC-2 β-lactamase = settings: cited from earlier work
OXA-24/40 = settings: range given jointly for several OXA enzymes; cited from earlier work
[3] = system: A. baumannii clinical isolates; assay: Broth microdilution MIC susceptibility testing against carbapenems; format: cell-based, Acinetobacter baumannii; settings: Acinetobacter baumannii
[4] = read-out: koff (residence time)

Compound: NC(=O)[C@@H]1CC[C@@H]2CN1C(=O)N2OS(=O)(=O)O [Avibactam, avibactam]
- k2/Ki (OXA-10; OXA-10 from Pseudomonas aeruginosa): 1.1 ± 0.1 × 10^1 M^−1 s^−1
- k2/Ki (OXA-48): 1.4 ± 0.1 × 10^3 M^−1 s^−1

Compound: CC1=C[C@@H]2CN(C(=O)N2OS(=O)(=O)O)[C@@H]1C(N)=O [ETX2514]
- acyl transfer from acylated OXA-58 to KPC-2 (OXA-58 β-lactamase [1]): did not transfer to KPC-2
- k2/Ki (acylation rate) (OXA-23): 5 to 9 × 10^3 M^−1 s^−1
- k2/Ki (OXA-10; OXA-10, range given jointly for several OXA enzymes): 5 to 9 × 10^3 M^−1 s^−1
- Kd (ADC-7 β-lactamase): 1 ± 0.1 nM
- Ki (ADC-7 β-lactamase): 110 ± 10 nM
- kinact/KI (ADC-7 β-lactamase; pH 7.4, read-out: k2/Ki): 1e+06 ± 1e+11 M⁻¹ s⁻¹
- koff (ADC-7 β-lactamase; [4]): 0.0008 ± 1e-08 s⁻¹
- Log10 CFU/g (A. baumannii ARC5955): 8.8 log10 CFU/g
- Change in log10 CFU/g (A. baumannii ARC5955; 50 mg/kg): 2.2 log10 CFU/g
- Kd (OXA-58 β-lactamase [2]): 1 ± 0.2 nM
- Ki (OXA-58 β-lactamase [2]): 390 ± 40 nM
- kinact/KI (OXA-58 β-lactamase [2]; pH 7.4, read-out: k2/Ki): 250000 ± 3e+09 M⁻¹ s⁻¹
- koff (OXA-58 β-lactamase [2]; [4]): 0.00016 s⁻¹
- IC50 (OXA 24/40): 190 nM
- k2/Ki (OXA-48): 8 ± 2 × 10^5 M^−1 s^−1
- Ki (OXA-66 β-lactamase): 43000 ± 4000 nM
- k2/Ki (KPC-2 β-lactamase): 9.3 ± 0.6 × 10^5 M^−1 s^−1
- koff (KPC-2 β-lactamase): 1.0 ± 0.1 × 10^−3 s^−1
- k2/Ki (acylation rate) (OXA-24/40): 5 to 9 × 10^3 M^−1 s^−1

- MIC ([3]; strain CCF 1MR): > 8 µg/mL
- MIC ([3]; strain CCF 2MR): > 8 µg/mL
- MIC ([3]; strain CCF 3MR): > 8 µg/mL
- MIC ([3]; strain CCF 4MR): > 8 µg/mL
- MIC ([3]; strain CCF 5MR): > 8 µg/mL
- MIC ([3]; strain CCF 6MR): > 8 µg/mL
- MIC ([3]; strain CCF 7MR): > 8 µg/mL
- MIC ([3]; strain CCF 8MR): > 8 µg/mL
- MIC ([3]; strain UH AB202): > 8 µg/mL
- MIC ([3]; strain UH AB461): > 8 µg/mL
- MIC ([3]; strain UH AB477): > 8 µg/mL
- MIC ([3]; strain UH AB487): > 8 µg/mL
- MIC ([3]; strain UH AB489): > 8 µg/mL
- MIC ([3]; strain UH AB490): > 8 µg/mL
- MIC ([3]; strain UH AB491): > 8 µg/mL
- MIC ([3]; strain UH AB636): > 8 µg/mL
- MIC ([3]; strain UH AB660): > 8 µg/mL
- MIC ([3]; strain UH AB667): > 8 µg/mL
- MIC ([3]; strain VA-432): 32 µg/mL (≈ 107 µM)
- MIC ([3]; strain VA-433): 16 µg/mL (≈ 53.4 µM)
- MIC ([3]; strain VA-434): 64 µg/mL (≈ 214 µM)
- MIC ([3]; strain VA-435): 32 µg/mL (≈ 107 µM)
- MIC ([3]; strain VA-436): 64 µg/mL (≈ 214 µM)
- MIC ([3]; strain VA-437): 32 µg/mL (≈ 107 µM)
- MIC ([3]; strain VA-438): 16 µg/mL (≈ 53.4 µM)
- MIC ([3]; strain VA-505): 32 µg/mL (≈ 107 µM)
Compound: C[C@@H](O)[C@H]1C(=O)N2C(C(=O)O)=C(SCCN=CN)C[C@H]12 [Imipenem]
